Several values for one entry are separate records, joined by “and”; a condition that tells them apart may be missing. Identical values can stand only once.
Conditions: Gas, Buoyancy - hydrostatic balance with magnetic suspension - two sinkers

[He] [helium]
Conditions | mass density
273.16 K, 31577 kPa | 47.957 kg/m3 and 47.9575 kg/m3
273.16 K, 31578 kPa | 47.9581 kg/m3 and 47.9577 kg/m3
273.16 K, 31775 kPa | 48.2167 kg/m3
273.16 K, 31776 kPa | 48.2177 kg/m3
273.16 K, 31777 kPa | 48.2188 kg/m3
273.16 K, 31778 kPa | 48.22 kg/m3
273.16 K, 31779 kPa | 48.2215 kg/m3
273.16 K, 31780 kPa | 48.2235 kg/m3
273.16 K, 31865 kPa | 48.3344 kg/m3 and 48.3352 kg/m3
273.16 K, 31866 kPa | 48.3358 kg/m3
273.16 K, 31867 kPa | 48.3368 kg/m3 and 48.3375 kg/m3
273.16 K, 32210 kPa | 48.7873 kg/m3
273.16 K, 32211 kPa | 48.788 kg/m3
273.16 K, 32212 kPa | 48.7903 kg/m3 and 48.7886 kg/m3
273.16 K, 32213 kPa | 48.7913 kg/m3
273.16 K, 37198 kPa | 55.185 kg/m3
273.16 K, 37199 kPa | 55.1865 kg/m3
273.16 K, 37200 kPa | 55.1874 kg/m3
273.16 K, 37201 kPa | 55.1885 kg/m3 and 55.1895 kg/m3
273.16 K, 37514 kPa | 55.5816 kg/m3
273.16 K, 37515 kPa | 55.5829 kg/m3
273.16 K, 37517 kPa | 55.5843 kg/m3
273.16 K, 37518 kPa | 55.5858 kg/m3
273.16 K, 37520 kPa | 55.5878 kg/m3
273.16 K, 37531 kPa | 55.6035 kg/m3
273.16 K, 37536 kPa | 55.6095 kg/m3
273.16 K, 37537 kPa | 55.6109 kg/m3
273.16 K, 37539 kPa | 55.6125 kg/m3
273.16 K, 37540 kPa | 55.6136 kg/m3
273.16 K, 38114 kPa | 56.3321 kg/m3 and 56.3327 kg/m3
273.16 K, 38115 kPa | 56.3338 kg/m3
273.16 K, 38116 kPa | 56.335 kg/m3 and 56.3346 kg/m3
293.15 K, 980.1 kPa | 1.6025 kg/m3
293.15 K, 980.2 kPa | 1.6025 kg/m3 and 1.6026 kg/m3
293.15 K, 1731.6 kPa | 2.8204 kg/m3 and 2.8205 kg/m3 and 2.8207 kg/m3
293.15 K, 3908.9 kPa | 6.3007 kg/m3 [middle of 5 runs]
293.15 K, 4006.9 kPa | 6.4542 kg/m3
293.15 K, 4007 kPa | 6.4541 kg/m3 and 6.4543 kg/m3 and 6.4542 kg/m3
293.15 K, 7058 kPa | 11.2086 kg/m3
293.15 K, 7058.1 kPa | 11.2089 kg/m3 and 11.2088 kg/m3
293.15 K, 7058.2 kPa | 11.2089 kg/m3
293.15 K, 7881.3 kPa | 12.4696 kg/m3
293.15 K, 7881.6 kPa | 12.4701 kg/m3
293.15 K, 7882.1 kPa | 12.4707 kg/m3
293.15 K, 7882.6 kPa | 12.4715 kg/m3
293.15 K, 7883 kPa | 12.4722 kg/m3
293.15 K, 10034 kPa | 15.7199 kg/m3
293.15 K, 10035 kPa | 15.7202 kg/m3 and 15.7205 kg/m3
293.15 K, 11762 kPa | 18.2837 kg/m3 [middle of 5 runs]
293.15 K, 14018 kPa | 21.5714 kg/m3 [middle of 8 runs]
293.15 K, 16004 kPa | 24.4152 kg/m3
293.15 K, 16005 kPa | 24.4156 kg/m3 [middle of 4 runs]
293.15 K, 18018 kPa | 27.2473 kg/m3 and 27.2468 kg/m3 and 27.2464 kg/m3
293.15 K, 18019 kPa | 27.2479 kg/m3 [middle of 5 runs]
293.15 K, 19905 kPa | 29.8586 kg/m3 and 29.8588 kg/m3
293.15 K, 19906 kPa | 29.8595 kg/m3 and 29.8599 kg/m3 and 29.8592 kg/m3
293.15 K, 24474 kPa | 36.0124 kg/m3 [middle of 4 runs]
293.15 K, 24475 kPa | 36.0141 kg/m3 and 36.0137 kg/m3
293.15 K, 24476 kPa | 36.0152 kg/m3
293.15 K, 25777 kPa | 37.7285 kg/m3
293.15 K, 25778 kPa | 37.7301 kg/m3 and 37.7298 kg/m3 and 37.7293 kg/m3
293.15 K, 25779 kPa | 37.7309 kg/m3
293.15 K, 29507 kPa | 42.5361 kg/m3
293.15 K, 29508 kPa | 42.5375 kg/m3 and 42.5373 kg/m3
293.15 K, 29509 kPa | 42.5383 kg/m3
293.15 K, 29510 kPa | 42.5393 kg/m3 and 42.5394 kg/m3
293.15 K, 29511 kPa | 42.5405 kg/m3
293.15 K, 31846 kPa | 45.4829 kg/m3
293.15 K, 31847 kPa | 45.4837 kg/m3
293.15 K, 31848 kPa | 45.4862 kg/m3 and 45.4845 kg/m3
293.15 K, 31850 kPa | 45.4879 kg/m3
293.15 K, 38003 kPa | 52.9909 kg/m3
293.15 K, 38004 kPa | 52.9921 kg/m3
293.15 K, 38005 kPa | 52.993 kg/m3
293.15 K, 38006 kPa | 52.9944 kg/m3
293.15 K, 38007 kPa | 52.9958 kg/m3
293.16 K, 10034 kPa | 15.7195 kg/m3
323.15 K, 1780.1 kPa | 2.6324 kg/m3 and 2.6323 kg/m3 and 2.6322 kg/m3
323.15 K, 1780.2 kPa | 2.6323 kg/m3
323.15 K, 3959.1 kPa | 5.7989 kg/m3 and 5.7987 kg/m3
323.15 K, 7974.3 kPa | 11.4834 kg/m3 and 11.4836 kg/m3
323.15 K, 7974.4 kPa | 11.4837 kg/m3 and 11.4836 kg/m3
323.15 K, 11648 kPa | 16.5228 kg/m3 [middle of 5 runs]
323.15 K, 15081 kPa | 21.0997 kg/m3
323.15 K, 15082 kPa | 21.1007 kg/m3 and 21.1001 kg/m3 and 21.1 kg/m3
323.15 K, 19305 kPa | 26.565 kg/m3 and 26.5643 kg/m3 and 26.5647 kg/m3
323.15 K, 19306 kPa | 26.5662 kg/m3 and 26.5653 kg/m3
323.15 K, 25679 kPa | 34.4876 kg/m3 and 34.4883 kg/m3
323.15 K, 25680 kPa | 34.4886 kg/m3 and 34.489 kg/m3 and 34.4895 kg/m3
323.15 K, 31795 kPa | 41.7513 kg/m3 and 41.752 kg/m3
323.15 K, 31796 kPa | 41.7528 kg/m3
323.15 K, 31797 kPa | 41.7536 kg/m3 and 41.7543 kg/m3
323.15 K, 37888 kPa | 48.6852 kg/m3
323.15 K, 37889 kPa | 48.6863 kg/m3
323.15 K, 37890 kPa | 48.6876 kg/m3
323.15 K, 37891 kPa | 48.6888 kg/m3
323.15 K, 37892 kPa | 48.6904 kg/m3
